Tests used:
ER-α36 transfected cells = settings: for block of E2β-stimulated cell growth by anti-estrogens: 10 nM anti-estrogen with E2β; for block of E2β-stimulated cell growth by anti-estrogens / growth of ER-α36 transfected cells, anti-estrogen alone: 48 hours; for growth of ER-α36 transfected cells, anti-estrogen alone: 10 nM
ER-α36 [1] = target: T1, ER-α36 (Homo sapiens, UniProt P03372, I452L); assay: Western blot of MAPK pathway activation (ERK1/2, Mek1 phosphorylation) in ER-α36 transfected HEK293 cells; assay type: cell-based
T1 construct: expressed in transfected cells; transient transfectants for A11
T1 sequence (P03372 1-310 isoform P03372-4 I279L): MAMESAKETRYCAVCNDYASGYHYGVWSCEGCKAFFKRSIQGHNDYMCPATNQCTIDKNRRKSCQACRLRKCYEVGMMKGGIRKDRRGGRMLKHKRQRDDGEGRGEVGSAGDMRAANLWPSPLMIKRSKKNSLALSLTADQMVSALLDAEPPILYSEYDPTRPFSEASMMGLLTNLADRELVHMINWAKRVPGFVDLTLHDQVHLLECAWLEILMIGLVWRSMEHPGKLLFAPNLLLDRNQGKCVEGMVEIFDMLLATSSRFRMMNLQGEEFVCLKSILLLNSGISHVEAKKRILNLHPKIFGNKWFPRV
Procedure: (§1) Cell culture, establishment of stable cell lines and membrane-labeling with E2-BSA-FITC. MCF10A cells were obtained from Karmanos Cancer Institute at Detroit, Mich., and human embryonic kidney 293 cells, and all breast cancer cells were obtained from ATCC. All cells were maintained at 37° C. in a 5% CO2 atmosphere in appropriate tissue culture medium. […] The ER-α36 expression vector was constructed by cloning a 1.1-kb EcoRI-BamHI cDNA fragment of ER-α36 from pBS-ER-α36 into the EcoRI and BamHI sites of mammalian expression vector pCB6+. Empty vector was also transfected into cells to serve as controls. Forty-eight hours after transfection, the cells were replated and selected with 500 μg/ml of G418 (Invitrogen) for two weeks. The resulting uncloned population of G418-resistant cells was expanded to generate cells used for further analysis.
(§2) Western blot analysis, indirect immunofluorescence and antibodies. For Western blot analysis, cells were disrupted with RIPA buffer, boiled in gel loading buffer and separated on a 10% SDS-PAGE gel. After electrophoresis, the proteins were transferred to a PVDF membrane (Millipore). The filter was probed with various antibodies and visualized with appropriate HRP-conjugated secondary antibodies (Santa Cruz Biotechnology) and ECL reagents (Perkin Elmer Life Sciences).
(§3) Antibody against ERK1/2 (K-23) was purchased from Santa Cruz Biotechnology. Antibodies used to analyze activation of the MAP kinase pathway included the phosphorylated forms of Mek1 and ERK1/2, and were purchased from Cell Signaling Technology. Rat anti-ER-α antibody (H222) was purchased from Research Diagnostic Inc. Antibodies of COPB (Y-20), mSin3A (AK-11), and 5′ nucleotidase (H-300) were purchased from Santa Cruz biotechnology Inc. D4-GDI (clone 97A1015) was obtained from Upstate Biotechnology.

[2] = tested on: control 293 cells transfected with empty expression vector; assay: Western blot of ERK1/2 phosphorylation in control 293 cells transfected with empty vector; assay type: cell-based, human
Procedure: as §1, §2
Antibody against ERK1/2 (K-23) was purchased from Santa Cruz Biotechnology. […]

[3] = tested on: ER-α66 negative MDA-MB-231 cells; assay: Western blot of ERK1/2 phosphorylation in MDA-MB-231 cells; assay type: cell-based, human; settings: 1 nM E2β, serum starved cells, different time periods
From the text: For Western blot analysis, cells were disrupted with RIPA buffer, boiled in gel loading buffer and separated on a 10% SDS-PAGE gel. After electrophoresis, the proteins were transferred to a PVDF membrane (Millipore). The filter was probed with antibody against ERK1/2 (K-23) (Santa Cruz Biotechnology), or antibody used against the phosphorylated form of ERK1/2 (Cell Signaling Technology).

[4] = tested on: ER-α66 negative MDA-MB-231 cells; assay: Anchorage-independent growth in soft agar; assay type: cell-based, human; settings: three weeks
From the text: The cells were then overlaid onto a 0.7% (wt/vol) agar containing phenol-red free DMEM/F12 medium plus 10% E2-free fetal calf serum in five replica 60 mm dishes. […] After three weeks, colonies were scored using an inverted microscope.

[5] = tested on: control cells transfected with empty expression vector; assay: MTT proliferation assay, control cells transfected with empty expression vector; assay type: cell-based, human; settings: E2β
[6] = tested on: control cells transfected with empty vector; assay: GAL-Elk / 5×Gal4-LUC luciferase reporter in control cells transfected with empty vector; settings: E2β
ER-α36 [7] = target: T2, ER-α36 (Homo sapiens, UniProt P03372); assay: Western blot of MAPK pathway activation (ERK1/2, Mek1 phosphorylation) in ER-α36 transfected HEK293 cells; assay type: cell-based; settings: treated for 10 minutes
T2 construct: expressed in transfected cells; transient transfectants for A11
T2 sequence (P03372 1-310 isoform P03372-4 I279L): T1 sequence (P03372 1-310 isoform P03372-4 I279L)
Procedure: as §1, §2, §3

[8] = tested on: neurons of ER-α gene knockout (aERKO) mice; settings: cited from earlier work
MDA-MB-231 cells = settings: high concentration of Tamoxifen; cited from earlier work

Compound: 4OH-Tamoxifen
- block of E2β-stimulated cell growth by anti-estrogens (ER-α36 transfected cells): did not block
- growth of ER-α36 transfected cells, anti-estrogen alone (ER-α36 transfected cells): strongly stimulated growth
- block of ERK1/2 activation mediated by ER-α36 by anti-estrogens (ER-α36 [1]): did not block
- effect on ERK1/2 activation compared to E2β alone (ER-α36 [1]): even stronger

Compound: C[C@]12CC[C@@H]3c4ccc(O)cc4CC[C@H]3[C@@H]1CC[C@@H]2O [E2β, 17β-estradiol]
- increase in the phosphorylation of ERK1/2 in control cells ([2]; E2β 10 nM, empty vector cells): not in the control cells
- phosphorylation of ERK1/2 in MDA-MB-231 cells [3]: induced rapid phosphorylation
- anchorage-independent growth in soft agar ([4]; 1 nM E2β): strongly promoted
- growth of control cells [5]: had no effect
- transcription activity of the Elk/Gal4 fusion protein in control cells [6]: had no effect

Compound: C[C@]12CC[C@@H]3c4ccc(O)cc4CC[C@H]3[C@@H]1[C@@H](O)[C@@H](O)[C@@H]2O [E4, estetrol]
- activation of ERK1/2 phosphorylation by estrogens (ER-α36 [7]): activated ERK1/2 phosphorylation at a very similar level

Compound: C[C@]12CC[C@@H]3c4ccc(O)cc4C[C@@H](CCCCCCCCC[S+]([O-])CCCC(F)(F)C(F)(F)F)[C@H]3[C@@H]1CC[C@@H]2O (some centres unmarked) [ICI-182, 780]
- block of E2β-mediated rapid actions in neurons [8]: not blocked

Compound: CC/C(=C(\c1ccccc1)c1ccc(OCCN(C)C)cc1)c1ccccc1 [Tamoxifen]
- ERK1/2 activation by Tamoxifen in control cells ([2]; same concentration (1 μM), empty vector 293 cells): had no effect
- effect of Tamoxifen on E2β-promoted growth in soft agar ([4]; 1 nM E2β combined with 1 nM tamoxifen): inhibits the effect of E2β
- block of E2β-stimulated cell growth by anti-estrogens (ER-α36 transfected cells): did not block
- growth of ER-α36 transfected cells, anti-estrogen alone (ER-α36 transfected cells): strongly stimulated growth
- apoptosis in MDA-MB-231 cells (MDA-MB-231 cells): induce apoptosis

Compound: N#CC(=C(/N)Sc1ccccc1N)/C(C#N)=C(/N)Sc1ccccc1N [UO126]
- inhibition of E2β-stimulated cell growth (ER-α36 transfected cells; 7.2 nM UO126, 48 hours): strongly inhibited

— patent US8263738B2, “Estrogen receptors and methods of use” (Creighton University, priority 2004, dated 2012)
